One data set deals with syngeneic MC38 tumors. The experiment in a line: MC38 study: anti-PD1 antibody alone or with methanol or sodium formate, tumor volume and survival. The data set is classed as in vivo, C57BL/6 mice. As to the method:
Tumor volumes were measured by caliper twice weekly.

The next data set deals with MC38 cells. Nature of the data set: MC38 rechallenge of mice that cleared tumors. The data set is classed as in vivo. Particulars: 6 mice cleared by methanol plus anti-PD1, reinoculated with 5×10^5 MC38 cells on opposite flank, untreated, observed three weeks. The source says:
The rechallenged mice were monitored twice weekly for tumor growth for three weeks. Fifteen age-matched, tumor-naïve control mice were simultaneously inoculated as a control. The mice were not treated during the observation interval.

For data set [1] the following is noted: humans; cited from earlier work.
The conditions of data set [2]: primates; cited from earlier work.
The conditions of data set [3]: in vivo; cited from earlier work.
The test system of a further data set is 1C-starved T-cells. The settings on record: formate supplementation; cited from earlier work.
Data set [4] in a line: Body weight in the MC38 study. The settings on record: methanol 2 g/kg daily oral gavage or sodium formate 0.5% w/v in drinking water, with anti-PD1.
Procedure: Female C57BL/6 mice (10 per group) were inoculated subcutaneously with 5×10^5 MC38 syngeneic mouse tumor cells. […] Tumor volumes were measured by caliper twice weekly.

As to `CO` [methanol], the “response to anti-PD1 therapy” value with syngeneic MC38 tumors (methanol 2 g/kg daily oral gavage plus anti-PD1 antibody 5 mg/kg ip twice weekly, compared to vehicle or sodium formate) is “improved response to anti-PD1 therapy”. The “synergy with immunotherapy in a mouse model of cancer” value with syngeneic MC38 tumors (mouse model of cancer) is on record as “synergize with immunotherapy”. Also, the “tumor development after rechallenge” value with MC38 cells is “did not develop tumors”. For the same compound, the lethal dose in data set [1] is 300 to 1000 mg/kg.

On to `O=C[O-].[Na+]` [sodium formate], for which the “formate levels at which symptomatic toxicity is observed” value in data set [2] is “greater than 8 mM”. In addition, the elimination result in data set [3] is given as “too rapidly eliminated to dose directly”. Also, in the data set with 1C-starved T-cells, the T-cell activity entry is “rescues T-cell activity”. Also, the “effects on body weight” value in data set [4] was “No effects on body weight”.
